According to patent publication US7186831B2, “5-halo-2-alkyl[1,2,4]triazolo[1,5-a]pyrimidin-7-amines” (priority 2001, dated 2007):

Test: log P by HPLC
Assay type: physicochemical
Settings: EEC directive 79/831 Annex V. A8 by HPLC (gradient method, acetonitrile/0.1% aqueous phosphoric acid)
Compound CCCCN(C)c1c(-c2c(F)cccc2F)c(Cl)nc2nc(C)nn12 [compound 338] has a logP of 3.46. For COC(CN(C)c1c(-c2c(F)cccc2F)c(Cl)nc2nc(C)nn12)OC [compound 334], the logP was 2.55. Fc1ccc(-c2c(Cl)nc3nc(C4CC4)nn3c2N2CCOCC2)c(F)c1 [compound 518] showed a logP of 2.85. Compound Cc1nc2nc(Cl)c(-c3c(F)cccc3F)c(NCC(C)(C)C)n2n1 [compound 329] has a logP of 3.27. In the case of CC(=O)NC1CCN(c2c(-c3c(F)cccc3F)c(Cl)nc3nc(C)nn23)CC1 [compound 323], the logP is reported as 1.78. Compound CCCN(CC1CCCO1)c1c(-c2ccc(F)cc2F)c(Cl)nc2nc(C)nn12 (centres unmarked) [compound 357] has a logP of 3.6. CC(Nc1c(-c2c(F)cc(F)cc2F)c(Cl)nc2nc(C3CC3)nn12)C(F)(F)F (centres unmarked) [compound 458] gave a logP of 3.58. With CCOC(=O)CN(c1c(-c2c(F)cccc2F)c(Cl)nc2nc(C)nn12)C1CC1 [compound 440] the logP was 3. C=C(C)CN(C)c1c(-c2ccccc2Cl)c(Cl)nc2nc(C3CC3)nn12 [compound 496] gave a logP of 4.32. Compound Cc1nc2nc(Cl)c(-c3ccc(F)cc3F)c(N(C)CCN(C)C)n2n1 [compound 350] has a logP of 1.23. For Cc1nc2nc(Cl)c(-c3c(F)cccc3F)c(N(C)C)n2n1 [compound 418], the logP was 2.37. CCCN(CC1CC1)c1c(-c2c(F)cccc2F)c(Cl)nc2nc(C)nn12 [compound 345] showed a logP of 3.83. CCC(C)Nc1c(-c2c(F)cc(F)cc2F)c(Cl)nc2nc(C3CC3)nn12 (centres unmarked) [compound 462] showed a logP of 3.69. CC(C)Nc1c(-c2ccc(F)cc2Cl)c(Cl)nc2nc(C3CC3)nn12 [compound 503] gave a logP of 3.5. Cc1nc2nc(Cl)c(-c3c(F)cccc3F)c(N3CCC(F)CC3)n2n1 [compound 443] gave a logP of 2.85. In the case of Fc1cc(F)c(-c2c(Cl)nc3nc(C4CC4)nn3c2NCC2CC2)c(F)c1 [compound 465], the logP is reported as 3.43. Compound Fc1ccc(-c2c(Cl)nc3nc(C4CC4)nn3c2N2CCCCC2)c(F)c1 [compound 517] has a logP of 4.03. Work on Cc1nc2nc(Cl)c(-c3ccc(F)cc3F)c(N3CCC(C)CC3)n2n1 [compound 287] yielded a logP of 3.75. Work on CC(C)Nc1c(-c2c(F)cc(F)cc2F)c(Cl)nc2nc(C3CC3)nn12 [compound 464] yielded a logP of 3.35. With C=C(C)CN(C)c1c(-c2c(F)cc(F)cc2F)c(Cl)nc2nc(C3CC3)nn12 [compound 469] the logP was 4.27. With CCC(C)Nc1c(-c2c(F)cccc2Cl)c(Cl)nc2nc(C)nn12 (centres unmarked) [compound 264] the logP was 3.14. In the case of Cc1nc2nc(Cl)c(-c3ccccc3F)c(NOCC(C)C)n2n1 [compound 361], the logP is reported as 2.98. In the case of Cc1nc2nc(Cl)c(-c3c(F)cc(F)cc3F)c(NC3CC3F)n2n1 (centres unmarked) [compound 439], the logP is reported as 2.3. With COCCN(C)c1c(-c2ccc(F)cc2F)c(Cl)nc2nc(C)nn12 [compound 352] the logP was 2.58. COC(=O)C1CCCCN1c1c(-c2ccc(F)cc2F)c(Cl)nc2nc(C)nn12 (centres unmarked) [compound 453] gave a logP of 3.36.

Same assay, conditions: HPLC, gradient method, acetonitrile/0.1% aqueous phosphoric acid; EEC directive 79/831 Annex V. A8
With CCc1nc2nc(Cl)c(-c3c(F)cc(F)cc3F)c(N3CC(C)OC(C)C3)n2n1 (centres unmarked) [compound 71] the logP was 3.57. Compound CC1=CCCN(c2c(-c3ccccc3Cl)c(Cl)nc3nc(C)nn23)C1 [compound 231] has a logP of 3.7. CCNc1c(-c2c(F)cc(F)cc2F)c(Cl)nc2nc(CC)nn12 [compound 91] gave a logP of 2.78. CC(C)CNc1c(-c2c(F)cccc2F)c(Cl)nc2nc(C3CC3)nn12 [compound 744] gave a logP of 3.44. Work on C=CCN(CC)c1c(-c2c(F)cc(F)cc2F)c(Cl)nc2nc(C)nn12 [compound 157] yielded a logP of 3.5. Cc1nc2nc(Cl)c(-c3c(F)cc(F)cc3F)c(NNC(C)C)n2n1 [compound 28] showed a logP of 2.7. Compound Cc1nc2nc(Cl)c(-c3ccc(F)cc3F)c(NC(C)C)n2n1 [compound 196] has a logP of 2.69. Compound C=CCN(C)c1c(-c2ccc(F)cc2F)c(Cl)nc2nc(C(F)(F)F)nn12 [compound 541] has a logP of 4.09. Compound CCc1nc2nc(Cl)c(-c3c(F)cc(F)cc3F)c(NC3CC3)n2n1 [compound 79] has a logP of 2.85. Compound C=CCONc1c(-c2c(F)cccc2F)c(Cl)nc2nc(C)nn12 [compound 140] has a logP of 2.38. CN1CCN(c2c(-c3ccc(F)cc3F)c(Cl)nc3nc(C(F)(F)F)nn23)CC1 [compound 807] showed a logP of 1.65. In the case of CCc1nc2nc(Cl)c(-c3c(F)cc(F)cc3F)c(N3CCCCC3)n2n1 [compound 73], the logP is reported as 3.94. With Fc1cccc(F)c1-c1c(Cl)nc2nc(C3CC3)nn2c1N1OC2CCC1C2 (centres unmarked) [compound 743] the logP was 3.23. Fc1cc(F)c(-c2c(Cl)nc3nc(C(F)(F)F)nn3c2NC2CCCC2)c(F)c1 [compound 32] showed a logP of 4.25. CC1(C)CCN(c2c(-c3ccc(F)cc3F)c(Cl)nc3nc(C4CC4)nn23)CC1 [compound 615] showed a logP of 4.67. For CN(CC1OCCO1)c1c(-c2ccc(F)cc2F)c(Cl)nc2nc(C(F)(F)F)nn12 [compound 540], the logP was 3.62. With Fc1ccc(-c2c(Cl)nc3nc(C(F)(F)F)nn3c2NC2CCCC(C(F)(F)F)C2)c(F)c1 (centres unmarked) [compound 536] the logP was 4.44. For CC(C)(Nc1c(-c2c(F)cc(F)cc2F)c(Cl)nc2nc(C(F)(F)F)nn12)C(F)(F)F [compound 105], the logP was 4.37. Cc1nc2nc(Cl)c(-c3ccc(F)cc3F)c(NC3CCCCC3)n2n1 [compound 197] showed a logP of 3.46. For Fc1ccc(-c2c(Cl)nc3nc(C4CC4)nn3c2N2CCCCO2)c(F)c1 [compound 690], the logP was 3.56. In the case of C=C(C)CN(CC)c1c(-c2c(F)cccc2Cl)c(Cl)nc2nc(C)nn12 [compound 114], the logP is reported as 3.91. For Cc1nc2nc(Cl)c(-c3c(F)cccc3Cl)c(NCC(C)C)n2n1 [compound 248], the logP was 3.14. Cc1nc2nc(Cl)c(-c3c(F)cc(F)cc3F)c(NC(C)(C)C(F)(F)F)n2n1 [compound 88] showed a logP of 3.7. For CCN(CCN(C)C)c1c(-c2ccc(F)cc2F)c(Cl)nc2nc(C(F)(F)F)nn12 [compound 547], the logP was 1.91. CCc1nc2nc(Cl)c(-c3c(F)cc(F)cc3F)c(N3CCCCC3C(F)(F)F)n2n1 (centres unmarked) [compound 94] showed a logP of 4.27. CC(C)(C)CNc1c(-c2c(F)cccc2F)c(Cl)nc2nc(C3CC3)nn12 [compound 762] gave a logP of 3.9. With CNc1c(-c2c(F)cc(F)cc2F)c(Cl)nc2nc(C(F)(F)F)nn12 [compound 108] the logP was 3.17. CCc1nc2nc(Cl)c(-c3c(F)cc(F)cc3F)c(N(CC)CC)n2n1 [compound 77] showed a logP of 3.71. CN(C)c1c(-c2c(F)cc(F)cc2F)c(Cl)nc2nc(C(F)(F)F)nn12 [compound 100] showed a logP of 3.6. For CCCNc1c(-c2c(F)cc(F)cc2F)c(Cl)nc2nc(C(F)(F)F)nn12 [compound 106], the logP was 3.82. CC(C)CN(N)c1c(-c2c(F)cccc2Cl)c(Cl)nc2nc(C3CC3)nn12 [compound 791] showed a logP of 3.74. With Cc1nc2nc(Cl)c(-c3ccc(Cl)cc3Cl)c(N3CCCCO3)n2n1 [compound 817] the logP was 3.67. With COCCN(C)c1c(-c2ccccc2Cl)c(Cl)nc2nc(C)nn12 [compound 222] the logP was 2.64. Cc1nc2nc(Cl)c(-c3c(F)cccc3F)c(N3CCOCC3)n2n1 [compound 176] showed a logP of 2.2. In the case of Fc1cccc(F)c1-c1c(Cl)nc2nc(C3CC3)nn2c1N1CCCCC1 [compound 682], the logP is reported as 3.9. In the case of CCOC(=O)CN(C)c1c(-c2c(F)cccc2F)c(Cl)nc2nc(C)nn12 [compound 562], the logP is reported as 2.62. CCC(C)ONc1c(-c2c(F)cccc2F)c(Cl)nc2nc(C)nn12 (centres unmarked) [compound 139] gave a logP of 2.78. With Cc1nc2nc(Cl)c(-c3c(F)cccc3F)c(NC3CCCC(C(F)(F)F)C3)n2n1 (centres unmarked) [compound 188] the logP was 3.37. With C=C(C)CNc1c(-c2ccc(F)cc2F)c(Cl)nc2nc(C)nn12 [compound 201] the logP was 2.72. Compound Cc1nc2nc(Cl)c(-c3c(F)cc(F)cc3F)c(NCC#N)n2n1 [compound 18] has a logP of 2.02. For Cc1nc2nc(Cl)c(-c3ccccc3Cl)c(N3CCCC(C)C3)n2n1 (centres unmarked) [compound 229], the logP was 3.92. In the case of COCCN(C)c1c(-c2ccc(F)cc2F)c(Cl)nc2nc(C(F)(F)F)nn12 [compound 545], the logP is reported as 3.73. For COCCN(C)c1c(-c2c(F)cccc2Cl)c(Cl)nc2nc(C3CC3)nn12 [compound 699], the logP was 3.3. With Cc1nc2nc(Cl)c(-c3c(F)cc(F)cc3F)c(NCCC(F)(F)F)n2n1 [compound 70] the logP was 2.85. Fc1ccc(-c2c(Cl)nc3nc(C4CC4)nn3c2NC2CC(C(F)(F)F)CC(C(F)(F)F)C2)c(F)c1 (centres unmarked) [compound 716] showed a logP of 4.31. In the case of CCN(CCOC)c1c(-c2ccc(F)cc2F)c(Cl)nc2nc(C)nn12 [compound 128], the logP is reported as 2.84. In the case of Cc1nc2nc(Cl)c(-c3ccc(F)cc3F)c(N3OCCC3C)n2n1 (centres unmarked) [compound 695], the logP is reported as 2.79. Fc1ccc(-c2c(Cl)nc3nc(C4CC4)nn3c2NC2CCCC2)c(F)c1 [compound 650] showed a logP of 3.76. Compound Cc1nc2nc(Cl)c(-c3ccccc3Cl)c(NC3CC3)n2n1 [compound 215] has a logP of 2.54. CCc1nc2nc(Cl)c(-c3c(F)cc(F)cc3F)c(NNC(C)C)n2n1 [compound 49] showed a logP of 3.05. In the case of CCCN(CC1CC1)c1c(-c2ccc(F)cc2F)c(Cl)nc2nc(C3CC3)nn12 [compound 598], the logP is reported as 4.53. In the case of Cc1nc2nc(Cl)c(-c3c(F)cc(F)cc3F)c(N3CCCC(O)C3)n2n1 (centres unmarked) [compound 99], the logP is reported as 2.15. Fc1ccc(-c2c(Cl)nc3nc(C4CC4)nn3c2N2CCCC2C(F)(F)F)c(Cl)c1 (centres unmarked) [compound 639] showed a logP of 4.23. With Cc1nc2nc(Cl)c(-c3c(F)cc(F)cc3F)c(NC3CCCC3)n2n1 [compound 62] the logP was 3.23. Cc1nc2nc(Cl)c(-c3ccccc3Cl)c(NC3CCCC3)n2n1 [compound 213] showed a logP of 3.28. With Cc1nc2nc(Cl)c(-c3c(F)cc(F)cc3F)c(N(C)C)n2n1 [compound 86] the logP was 2.49. In the case of C=C(C)CN(C)c1c(-c2ccc(F)cc2Cl)c(Cl)nc2nc(C3CC3)nn12 [compound 629], the logP is reported as 4.41. For Clc1ccccc1-c1c(Cl)nc2nc(C3CC3)nn2c1NCC1CC1(Cl)Cl (centres unmarked) [compound 745], the logP was 3.78.
